# Results published in patent publication US20250281474A1, “PHARMACEUTICAL COMPOSITION FOR TREATING COGNITIVE DECLINE OR FOR TREATING OVERWEIGHTNESS OR OBESITY” (University of the Ryukyus, priority 2021, published 2025).
# What was measured:
# [1] = system: AMPAR subunits GluA1-4 mRNA; assay: qRT-PCR of AMPAR/NMDAR subunits in hippocampal regions, Ca2+ permeability index; format: in vivo, mouse
# Method: After preparing and collecting hippocampal slices, CA1, CA2, CA3, DG, and EC regions were separated from hippocampal slices using a dissection knife from […] background mice and ob/ob mice, respectively. The CA1, CA2, CA3, DG, and EC regions of mice were separated and immediately lysed in disposable homogenization tube BioMasher2 (trademark) (Nippi, Tokyo, Japan) using 0.5 mL of TRIzol RNA isolation reagent (Thermo Fisher Scientific, Wilmington, DE). Total RNA was individually extracted from each region according to the remaining protocol of the TRIzol RNA isolation reagent provided by the manufacturer (Thermo Fisher Scientific, Wilmington, DE). 1 μg of total RNA was reverse transcribed using PrimeScript RT Reagent Kit (Takara, Shiga, Japan). An aliquot of the obtained cDNA was diluted 1:10 and added to a master mix of TB Green Premix ExTaq (Takara, Shiga, Japan), and real-time PCR was performed using a 7500 Fast Real-Time PCR system (Applied Biosystems, Foster City, CA, USA) according to the manufacturer's instructions. The conditions for real-time PCR were as follows. 40 cycles of 95° C. for 30 seconds, then 95° C. for 5 seconds and 60° C. for 34 seconds. The fluorescence intensity was measured for each annealing step and the threshold cycle time was determined using 7500 software. In addition, relative expression levels of β-actin were normalized to respective controls (vehicle group). The relative expression level of the target gene in each sample was determined using a standard curve and further normalized to the expression level of R-actin of the same sample. The sequences of primers and probes for these genes are shown in Supplemental Table 2. The “ratio of GluA2 mRNA amount/(GluA1+GluA3+GluA4 mRNA amount” was used as a Ca^2+ permeability index.
# GluA2 is edited at the Q/R site within the reentry M2 membrane loop region by adenosine deaminase (ADAR2), which acts on RNA type 2 involved in editing double-stranded RNA from adenosine (A) to inosine (I) (review, refer to 15, 16 and 17). Attempts were made to determine real-time quantitative reverse transcription polymerase chain reaction (qRT-PCR), subunit composition of AMPAR and NMDAR. Total RNA in hippocampal subregions (CA1, CA3, DG, EC) was separated, and quantitative analysis of mRNA of GluA1, GluA2, GluA3, and GluA4 for AMPAR, and GluN1, GluN2A, GluN2B, and GluN2C for NMDAR was performed by qRT-PCR. […] Based on the mRNA amount of each subunit, the ratio of GluA2 to other GluA subunits (FIG. 2B) was determined. The ratio was defined as a Ca^2+ permeability index.
# AMPAR (CP-AMPAR) = assay: Ca2+ imaging of hippocampal brain slices, AMPA+CTZ application (CP-AMPA reaction), HFD-fed mice; format: cell-based; conditions: slices of HFD-fed mice given PER 5 mg/kg/day orally, 100 μM AMPA + 100 μM CTZ, N=5
# Method: First, the intracellular calcium concentration ([Ca^2+]i) was directly measured in an acute brain slice of the hippocampus having a perihippocampal region using a mouse obesity model associated with HFD feeding (composition of diet (7) shown in Table 1) for 12 weeks after weaning to track calcium signaling (FIG. 1A: supplementary data moving image 1) in the hippocampus. HFD-fed mice received […] containing 100 μM CTZ (cyclothiazide; […]) applied to EC (entorhinal cortex), CA1 (cornu ammonis 1), CA2, CA3, and DG (dentate gyrus). The F525 normalized before and after application was compared.
# [2] = Body weight monitoring of HFD-fed mice; format: in vivo, mouse
# Method: Male C57BL/6J background and ob/ob mice were obtained from CLEA Japan Inc. and Japan SLC, respectively (3). The reason why male mice were selected is that it has been reported that male mice are susceptible to HFD, such as weight gain, metabolic changes, and disorder of learning and hippocampal synaptic plasticity. These animals were housed 3 to 4 per cage in a standard 12 hour dark-light cycle room at 25° C. in an environment with freely available food and water. All animal experiments were performed in accordance with the guidelines of the Animal Experiment Ethics Committee of the University of the Ryukyus. Time series changes in average food intake and average body weight were monitored in each condition.
# Post-weaning (6 weeks) food intake and body weight of mice maintained on control diet (CD), high-fat diet (HFD), or HFD containing PER (Fycompa (trademark), Eisai, Japan) (5 mg/kg/day) was monitored up to 18 w (FIGS. 2, E and F). […]
# Mice were then split into an HFD-fed group (n=5) and a PER-containing HFD-fed group (n=5) under the condition of the same feeding amount (refer to lower Panel of FIG. 25) and their body weights monitored.
compound,measurement,setting,value
"N#Cc1ccccc1-c1cc(-c2ccccn2)cn(-c2ccccc2)c1=O [PER, 3-(2-cyanophenyl)-5-(2-pyridyl)-1-phenyl-1,2-dihydropyridine-2-one]",Ca2+ permeability index CA1,"[1]; GluA2 mRNA/(GluA1+GluA3+GluA4 mRNA), HFD-fed mice with PER, CA1, N=5",0.29 ± 0.11 (N = 5)
same,Ca2+ permeability index CA3,"[1]; GluA2 mRNA/(GluA1+GluA3+GluA4 mRNA), HFD-fed mice with PER, CA3, N=5",0.26 ± 0.10 (N = 5)
same,Ca2+ permeability index DG,"[1]; GluA2 mRNA/(GluA1+GluA3+GluA4 mRNA), HFD-fed mice with PER, DG, N=5",0.22 ± 0.06 (N = 5)
same,Ca2+ permeability index EC,"[1]; GluA2 mRNA/(GluA1+GluA3+GluA4 mRNA), HFD-fed mice with PER, EC, N=5",0.30 ± 0.05(N = 5)
same,"Ca2+ permeability index via CA1, CA3, DG, EC (reduced by HFD)","[1]; HFD-fed mice, PER administration, N=5",returned to CD-fed mouse levels
same,GluA2 mRNA expression in CA1 (qRT-PCR),"[1]; mice fed HFD with PER, p<0.05",significant increase
same,CP-AMPA reaction CA1 (maximum value of NF525),AMPAR (CP-AMPAR); CA1,1.00 ± 0.01 (N = 5)
same,CP-AMPA reaction CA2 (maximum value of NF525),AMPAR (CP-AMPAR); CA2,1.00 ± 0.02 (N = 5)
same,CP-AMPA reaction CA3 (maximum value of NF525),AMPAR (CP-AMPAR); CA3,1.00 ± 0.01 (N = 5)
same,CP-AMPA reaction DG (maximum value of NF525),AMPAR (CP-AMPAR); DG,1.02 ± 0.01 (N = 5)
same,CP-AMPA reaction EC (maximum value of NF525),AMPAR (CP-AMPAR); EC,1.05 ± 0.05 (N = 5)
same,body weight of HFD-fed mice,"[2]; HFD containing PER 5 mg/kg/day from 6 weeks, effect started from 16 w compared to HFD",significant inhibition
same,body weight under the condition of the same feeding amount,[2]; PER-containing HFD-fed group n=5 vs HFD-fed group n=5,significant body weight loss
